System: Nrf2 transcriptional activity (pARE-Luc reporter) in HepG2 cells
Assay: In vitro Nrf2 transcriptional activity measurement by ARE-dependent reporter assay in HepG2 cell
Type: cell-based, human
Settings: Homo sapiens; HepG2 cells transfected with pARE-Luc, 4 hours at 37° C.; luciferase activity of Example 1-54 or Example 17-23 at 3.75 μM defined as 100%
Method in brief: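 Luminescence readout (Bright-Glo) after 4 h, 37° C compound exposure of HepG2 cells carrying the ARE-luciferase vector pGL4.37. Each well converted to % response versus reference compound at 3.75 μM, and EC50 derived from dose-response curves.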

EC50	Compound
11 nM	CN(Cc1ccon1)c1cc(-c2cccc3c2OCN(C(=O)c2c(Cl)cc(-c4cnn(C)c4)cc2Cl)C3)c(F)cc1C(=O)O [Compound 12-1, 4-[3-[2,6-Dichloro-4-(1-methylpyrazol-4-yl)benzoyl]-2,4-dihydro-1,3-benzoxazin-8-yl]-5-fluoro-2-[methyl(1,2-oxazol-3-ylmethyl)amino] benzoic acid]
2.6 nM	Cn1cc(-c2cc(Cl)c(C(=O)N3COc4c(cccc4-c4cc(N5CC6CCC(C5)O6)c(C(=O)O)cc4F)C3)c(Cl)c2)cn1 [Compound 12-2, 4-[3-[2,6-Dichloro-4-(1-methylpyrazol-4-yl)benzoyl]-2,4-dihydro-1,3-benzoxazin-8-yl]-5-fluoro-2-(8-oxa-3-azabicyclo[3.2.1]octan-3-yl)benzoic acid]
6 nM	CO[C@H]1CN(c2cc(-c3cccc4c3OCN(C(=O)c3c(Cl)cc(-c5cnn(C)c5)cc3Cl)C4)c(F)cc2C(=O)O)[C@H]1C [Compound 12-3, 4-[3-[2,6-Dichloro-4-(1-methylpyrazol-4-yl)benzoyl]-2,4-dihydro-1,3-benzoxazin-8-yl]-5-fluoro-2-[(2S,3S)-3-methoxy-2-methylazetidin-1-yl]benzoic acid]
15 nM	CN(c1cc(-c2cccc3c2OCN(C(=O)c2c(Cl)cc(-c4cnn(C)c4)cc2Cl)C3)c(F)cc1C(=O)O)C1COC1 [Compound 12-4, 4-[3-[2,6-Dichloro-4-(1-methylpyrazol-4-yl)benzoyl]-2,4-dihydro-1,3-benzoxazin-8-yl]-5-fluoro-2-[methyl(oxetan-3-yl)amino]benzoic acid]
18 nM	Cn1cc(-c2cc(Cl)c(C(=O)N3Cc4cccc(-c5ccc(C(=O)O)c(N6CCOCC6)c5)c4CN3)c(Cl)c2)cn1 [Compound 13-2, 4-[2-[2,6-Dichloro-4-(1-methylpyrazol-4-yl)benzoyl]-3,4-dihydro-1H-phthalazin-5-yl]-2-morpholin-4-ylbenzoic acid]
5.3 nM	Cc1c(F)c(-c2cccc3c2OCN(C(=O)c2c(Cl)cc(-c4cnn(C)c4)cc2Cl)C3)cc(N2CCOCC2)c1C(=O)O [Compound 13-3, 4-[3-[2,6-Dichloro-4-(1-methylpyrazol-4-yl)benzoyl]-2,4-dihydro-1,3-benzoxazin-8-yl]-3-fluoro-2-methyl-6-morpholin-4-ylbenzoic acid]
24 nM	Cn1cc(-c2cc(Cl)c(C(=O)N3COc4c(cccc4-c4c(F)cc(C(=O)O)c(N5CCOCC5)c4F)C3)c(Cl)c2)cn1 [Compound 13-4, 4-[3-[2,6-Dichloro-4-(1-methylpyrazol-4-yl)benzoyl]-2,4-dihydro-1,3-benzoxazin-8-yl]-3,5-difluoro-2-morpholin-4-ylbenzoic acid]
16 nM	Cn1cc(-c2cc(Cl)c(C(=O)N3COc4c(cccc4-c4ccc(C(=O)O)c(N5CCOCC5)c4F)C3)c(Cl)c2)cn1 [Compound 13-5, 4-[3-[2,6-Dichloro-4-(1-methylpyrazol-4-yl)benzoyl]-2,4-dihydro-1,3-benzoxazin-8-yl]-3-fluoro-2-morpholin-4-ylbenzoic acid]
7.5 nM	Cn1ncc2c(Cl)c(C(=O)N3COc4c(cccc4-c4ccc(C(=O)O)c(N5CCOCC5)c4)C3)ccc21 [Compound 13-6, 4-[3-(4-Chloro-1-methylindazole-5-carbonyl)-2,4-dihydro-1,3-benzoxazin-8-yl]-2-morpholin-4-ylbenzoic acid]
6.7 nM	COc1cc(Cl)c(C(=O)N2COc3c(cccc3-c3cc(N4CCOCC4)c(C(=O)O)cc3F)C2)cc1F [Compound 13-7, 4-[3-(2-Chloro-5-fluoro-4-methoxybenzoyl)-2,4-dihydro-1,3-benzoxazin-8-yl]-5-fluoro-2-morpholin-4-ylbenzoic acid]
5.4 nM	Cn1cc(-c2cc(Cl)c(C(=O)N3COc4c(ccc(F)c4-c4cc(N5CCOCC5)c(C(=O)O)cc4F)C3)c(Cl)c2)cn1 [Compound 13-8, 4-[3-[2,6-Dichloro-4-(1-methylpyrazol-4-yl)benzoyl]-7-fluoro-2,4-dihydro-1,3-benzoxazin-8-yl]-5-fluoro-2-morpholin-4-ylbenzoic acid]
5.2 nM	Cn1cc(-c2cc(Cl)c(C(=O)N3COc4c(ccc(F)c4-c4ccc(C(=O)O)c(N5CCOCC5)c4)C3)c(Cl)c2)cn1 [Compound 13-9, 4-[3-[2,6-Dichloro-4-(1-methylpyrazol-4-yl)benzoyl]-7-fluoro-2,4-dihydro-1,3-benzoxazin-8-yl]-2-morpholin-4-ylbenzoic acid]
17 nM	Cn1cc(-c2cc(Cl)c(C(=O)N3COc4c(cccc4-c4cc(N5CCOCC5)c(C(=O)O)cc4F)C3)cn2)cn1 [Compound 13-10, 4-[3-[4-Chloro-6-(1-methylpyrazol-4-yl)pyridine-3-carbonyl]-2,4-dihydro-1,3-benzoxazin-8-yl]-5-fluoro-2-morpholin-4-ylbenzoic acid]
7.5 nM	Cn1ccc2cc(C(=O)N3COc4c(cccc4-c4cc(N5CCOCC5)c(C(=O)O)cc4F)C3)c(Cl)cc21 [Compound 13-11, 4-[3-(6-Chloro-1-methylindole-5-carbonyl)-2,4-dihydro-1,3-benzoxazin-8-yl]-5-fluoro-2-morpholin-4-ylbenzoic acid]
17 nM	Cn1ccc2cc(Cl)c(C(=O)N3COc4c(cccc4-c4cc(N5CCOCC5)c(C(=O)O)cc4F)C3)cc21 [Compound 13-12, 4-[3-(5-Chloro-1-methylindole-6-carbonyl)-2,4-dihydro-1,3-benzoxazin-8-yl]-5-fluoro-2-morpholin-4-ylbenzoic acid]
7.1 nM	Cn1ccc2c(C(=O)N3COc4c(cccc4-c4cc(N5CCOCC5)c(C(=O)O)cc4F)C3)c(Cl)cnc21 [Compound 13-13, 4-[3-(5-Chloro-1-methylpyrrolo[2,3-b]pyridine-4-carbonyl)-2,4-dihydro-1,3-benzoxazin-8-yl]-5-fluoro-2-morpholin-4-ylbenzoic acid]
13 nM	O=C(O)c1cc(F)c(-c2cccc3c2OCN(C(=O)c2c(Cl)ccc4cc(Cl)cnc24)C3)cc1N1CCOCC1 [Compound 13-14, 4-[3-(3,7-Dichloroquinoline-8-carbonyl)-2,4-dihydro-1,3-benzoxazin-8-yl]-5-fluoro-2-morpholin-4-ylbenzoic acid]
10 nM	Cn1ncc2cc(Cl)c(C(=O)N3COc4c(cccc4-c4cc(N5CCOCC5)c(C(=O)O)cc4F)C3)cc21 [Compound 13-15, 4-[3-(5-Chloro-1-methylindazole-6-carbonyl)-2,4-dihydro-1,3-benzoxazin-8-yl]-5-fluoro-2-morpholin-4-ylbenzoic acid]

Compound	EC50
O=C(O)c1cc(F)c(-c2cccc3c2OCN(C(=O)c2c(Cl)cc(N4CC(N5CC(OC(F)F)C5)C4)cc2Cl)C3)cc1N1C2CCC1COC2 [Compound 11-4, 4-[3-[2,6-Dichloro-4-[3-[3-(difluoromethoxy)azetidin-1-yl]azetidin-1-yl]benzoyl]-2,4-dihydro-1,3-benzoxazin-8-yl]-5-fluoro-2-(3-oxa-8-azabicyclo[3.2.1]octan-8-yl)benzoic acid]	2 nM
COC1CN(C2(C)CN(c3cc(Cl)c(C(=O)N4COc5c(cccc5-c5cc(N6C7CCC6COC7)c(C(=O)O)cc5F)C4)c(Cl)c3)C2)C1 [Compound 11-5, 4-[3-[2,6-Dichloro-4-[3-(3-methoxyazetidin-1-yl)-3-methylazetidin-1-yl]benzoyl]-2,4-dihydro-1,3-benzoxazin-8-yl]-5-fluoro-2-(3-oxa-8-azabicyclo[3.2.1]octan-8-yl)benzoic acid]	2 nM
CC1(N2CCOCC2)CN(c2cc(Cl)c(C(=O)N3COc4c(cccc4-c4cc(N5C6CCC5COC6)c(C(=O)O)cc4F)C3)c(Cl)c2)C1 [Compound 11-6, 4-[3-[2,6-Dichloro-4-(3-methyl-3-morpholin-4-ylazetidin-1-yl)benzoyl]-2,4-dihydro-1,3-benzoxazin-8-yl]-5-fluoro-2-(3-oxa-8-azabicyclo[3.2.1]octan-8-yl)benzoic acid]	2.4 nM
O=C(O)c1cc(F)c(-c2cccc3c2OCN(C(=O)c2c(Cl)cc(N4CC(N5CC(OC(F)(F)F)C5)C4)cc2Cl)C3)cc1N1C2CCC1COC2 [Compound 11-7, 4-[3-[2,6-Dichloro-4-[3-[3-(trifluoromethoxy)azetidin-1-yl]azetidin-1-yl]benzoyl]-2,4-dihydro-1,3-benzoxazin-8-yl]-5-fluoro-2-(3-oxa-8-azabicyclo [3.2.1]octan-8-yl)benzoic acid]	5.2 nM
O=C(O)c1cc(F)c(-c2cccc3c2OCN(C(=O)c2c(Cl)cc(N4CC(N5CC(F)(F)C5)C4)cc2Cl)C3)cc1N1C2CCC1COC2 [Compound 11-8, 4-[3-[2,6-Dichloro-4-[3-(3,3-difluoroazetidin-1-yl)azetidin-1-yl]benzoyl]-2,4-dihydro-1,3-benzoxazin-8-yl]-5-fluoro-2-(3-oxa-8-azabicyclo[3.2.1]octan-8-yl)benzoic acid]	3.1 nM
O=C(O)c1cc(F)c(-c2cccc3c2OCN(C(=O)c2c(Cl)cc(N4CC(N5CC(F)C5)C4)cc2Cl)C3)cc1N1C2CCC1COC2 [Compound 11-9, 4-[3-[2,6-Dichloro-4-[3-(3-fluoroazetidin-1-yl)azetidin-1-yl]benzoyl]-2,4-dihydro-1,3-benzoxazin-8-yl]-5-fluoro-2-(3-oxa-8-azabicyclo[3.2.1]octan-8-yl)benzoic acid]	2.7 nM
O=C(O)c1cc(F)c(-c2cccc3c2OCN(C(=O)c2c(Cl)cc(N4CC5(CC(OC6CC6)C5)C4)cc2Cl)C3)cc1N1C2CCC1COC2 [Compound 11-10, 4-[3-[2,6-Dichloro-4-(6-cyclopropyloxy-2-azaspiro[3.3]heptan-2-yl)benzoyl]-2,4-dihydro-1,3-benzoxazin-8-yl]-5-fluoro-2-(3-oxa-8-azabicyclo[3.2.1]octan-8-yl)benzoic acid]	3.8 nM
Cn1cc(-c2cc(Cl)c(C(=O)N3COc4c(cccc4-c4cc(N5C6CCC5COC6)c(C(=O)O)cc4F)C3)c(Cl)c2)cn1 [Compound 13-1, 4-[3-[2,6-Dichloro-4-(1-methylpyrazol-4-yl)benzoyl]-2,4-dihydro-1,3-benzoxazin-8-yl]-5-fluoro-2-(3-oxa-8-azabicyclo[3.2.1]octan-8-yl)benzoic acid]	7.1 nM
